Among the data in patent US20050043292A1, “Fluorinated lysine derivatives as dipeptidyl peptidase IV inhibitors” (Pfizer Inc, priority 2003, published 2005) are IC50 values, retold here.

The assay deals with T1, DPP-IV (Homo sapiens, UniProt P27487).
T1 construct: purchased Enzyme Systems Products SPE-01
The assay is described as follows: In vitro Assay for Dipeptidyl Peptidase Inhibition. The assay is classed as biochemical. Conditions: in vitro activity, Gly-Pro-4-methoxy-β-naphthylamide substrate, overnight at 37° C., read-out: IC50 (concentration of test compound required for 50% inhibition). Here is the method:
150 μL of an enzyme-substrate solution is pipetted into microtiter wells of a polystyrene 96-well plate, and maintained at 4° C. The enzyme-substrate solution comprises 50 μM Gly-Pro4-methoxy B naphthylamide HCl in 50 mM Tris assay buffer pH 7.3 containing 0.1M sodium chloride, 0.1% (v/v) Triton and 50 μU/mL DPP-IV (Enzyme Systems Products Cat#SPE-01, DPP-IV 5 mU/mL stock). 5μL/well of compounds of Formula I are added, bringing the final compound of Formula I concentrations to 3 μM-10 nM per well.
Controls. Enzyme is omitted from four (4) wells, as a reagent blank. 5 μL of 3 mM Diprotin A is added to four wells as a positive quality control, providing a final Diprotin A concentration of 100 μM. To measure total enzyme activity (i.e. a negative control), without the influence of any compounds of Formula I, 5 μL of distilled water is added to four wells.
The entire assay is incubated overnight (about 14-18 hours) at 37° C.

Counter-ions that a name gives are not always drawn.

T1 sequence (P27487 whole entry, species assumed): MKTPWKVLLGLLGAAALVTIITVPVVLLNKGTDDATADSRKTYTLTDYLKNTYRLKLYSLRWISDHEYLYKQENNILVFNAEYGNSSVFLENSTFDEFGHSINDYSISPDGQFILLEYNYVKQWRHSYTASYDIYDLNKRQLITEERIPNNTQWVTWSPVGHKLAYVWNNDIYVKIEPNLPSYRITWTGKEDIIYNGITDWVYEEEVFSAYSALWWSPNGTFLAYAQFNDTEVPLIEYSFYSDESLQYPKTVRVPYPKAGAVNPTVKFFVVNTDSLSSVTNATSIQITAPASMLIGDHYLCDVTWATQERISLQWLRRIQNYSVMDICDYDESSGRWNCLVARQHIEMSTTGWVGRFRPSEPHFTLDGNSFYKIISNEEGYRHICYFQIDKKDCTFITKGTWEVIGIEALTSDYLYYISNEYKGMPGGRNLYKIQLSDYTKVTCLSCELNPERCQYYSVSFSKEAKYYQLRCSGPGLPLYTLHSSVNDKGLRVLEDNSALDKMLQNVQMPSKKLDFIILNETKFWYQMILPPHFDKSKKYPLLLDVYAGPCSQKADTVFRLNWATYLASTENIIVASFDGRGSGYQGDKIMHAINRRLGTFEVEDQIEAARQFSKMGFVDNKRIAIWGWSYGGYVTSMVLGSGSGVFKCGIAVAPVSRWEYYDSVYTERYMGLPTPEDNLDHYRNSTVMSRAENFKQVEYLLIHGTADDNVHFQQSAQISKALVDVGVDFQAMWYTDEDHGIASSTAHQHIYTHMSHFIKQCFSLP

For `N[C@@H](CCCCNC(=O)COc1ccccc1)C(=O)N1CC(F)(F)C(F)(F)C1` [Example 6, (S)-N-[5-Amino-6-oxo-6-(3,3,4,4-tetrafluoro-pyrrolidin-1-yl)-hexyl]-2-phenoxy-acetamide Hydrochloride], the IC50 is ~1400 nM.
